In patent publication US20110152086A1, “Herbicidal Compositions Comprising Flufenacet” (BAYER CROPSCIENCE AG, priority 2009, published 2011):
Where two headings read alike, the source gives them in different places.

How the values were obtained:
LOLSS = experiment: Greenhouse trial, PE application on sensitive and resistant biotypes (Table 5); format: in vivo, Lolium species; conditions: for activity, LOLSS resistant: resistant biotype; for activity, LOLSS resistant / activity, LOLSS Sensitive: (A) 90, (B) 1200, iodosulfuron 10 g of AS/ha; for activity, LOLSS Sensitive: sensitive biotype
Description: (§1) In the standard design of the test, seeds of various broad-leaved weed and weed grass biotypes (origins) were sown in a 8-13 cm diameter pot filled with natural soil of a standard field soil (loamy silt; non-sterile) and covered with a covering soil layer of about 1 cm. The pots were then cultivated in a greenhouse (12-16 h of light, temperature day 20-22° C., night 15-18° C.) until the time of application. The pots were treated on a laboratory track sprayer with spray liquors comprising the compositions according to the invention, mixtures of the prior art or components used individually. Application of the active compounds or active compound combinations formulated as WG, WP, EC or otherwise was carried out at the appropriate growth stages of the plants. The application rate for the spray application was 100-600 l of water/ha. After the treatment, the plants were returned to the greenhouses.
(§2) About 3 weeks after the application, the soil action or/and foliar action was assessed visually according to a scale of 0-100% in comparison to an untreated comparative group: 0%=no noticeable effect compared to the untreated comparative group; 100%=full effect compared to the untreated comparative group.
(§3) (notes: the term “seeds” also includes vegetative propagation forms such as, for example, rhizome pieces; abbreviations used: h light=hours of illumination, g of AS/ha=gram of active substance per hectare, l/ha=liter per hectare, S=sensitive, R=resistant) • 1. Pre-emergence action against weeds: seeds of various broad-leaved weed and weed grass biotypes (origins) were sown in a 8-13 cm diameter pot filled with natural soil of a standard field soil (loamy silt; non-sterile) and covered with a covering soil layer of about 1 cm. The pots were then cultivated in a greenhouse (12-16 h of light, temperature day 20-22° C., night 15-18° C.) until the time of application. The pots were treated at the BBCH stage 00-10 of the seeds/plants on a laboratory track sprayer with spray liquors comprising the compositions according to the invention, mixtures or components used individually, as WG, WP, EC or other formulations. The application rate for the spray application was 100-600 l of water/ha. After the treatment, the plants were returned to the greenhouses and, when required, treated with fertilizer and watered. • 2. Post-emergence action against weeds: seeds of various broad-leaved weed and weed grass biotypes (origins) were sown in a 8-13 cm diameter pot filled with natural soil of a standard field soil (loamy silt; non-sterile) and covered with a covering soil layer of about 1 cm. The pots were then cultivated in a greenhouse (12-16 h of light, temperature day 20-22° C., night 15-18° C.) until the time of application. The pots were treated at various BBCH stages between 11-25 of the seeds/plants, i.e. generally between two to three weeks after the start of the cultivation, on a laboratory track sprayer with spray liquors comprising the compositions according to the invention, mixtures or components used individually, as WG, WP, EC or other formulations. The application rate for the spray application was 100-600 l of water/ha. After the treatment, the plants were returned to the greenhouses and, when required, treated with fertilizer and watered. • 3. Pre-emergence action against weeds with and without incorporation of active compound: seeds of various broad-leaved weed and weed grass biotypes (origins) were sown in a 8-13 cm diameter pot filled with natural soil of a standard field soil (loamy silt; non-sterile). […]

PAPRH = experiment: as above; format: in vivo; conditions: for activity, PAPRH resistant: resistant biotype; for activity, PAPRH resistant / activity, PAPRH Sensitive: (A) 90, (B) 1200, iodosulfuron 10 g of AS/ha; for activity, PAPRH Sensitive: sensitive biotype
Description: as §1, §2, §3

LOLPE [1] = experiment: Greenhouse trial, PO application (Table 2); format: in vivo, Lolium perenne; conditions: (A) 120, (B) 1600 g of AS/ha
Description: as §1
(§4) About 3 weeks after the application, the soil action or/and foliar action was assessed visually according to a scale of 0-100% in comparison to an untreated comparative group: 0%=no noticeable effect compared to the untreated comparative group; 100%=full effect compared to the untreated comparative group. […]

HORVS = experiment: Greenhouse trial, selective PO application (Table 2); conditions: Hordeum vulgare (summer barley), in vivo
Description: as §1, §4

LOLPE [2] = experiment: Greenhouse trial, PE application vs application 7 days prior to sowing (Table 3); format: in vivo, Lolium perenne; conditions: (A) 90, (B) 1200 g of AS/ha
Description: as §1, §2
(§5) (notes: the term “seeds” also includes vegetative propagation forms such as, for example, rhizome pieces; abbreviations used: h light=hours of illumination, g of AS/ha=gram of active substance per hectare, l/ha=liter per hectare, S=sensitive, R=resistant) • 1. Pre-emergence action against weeds: seeds of various broad-leaved weed and weed grass biotypes (origins) were sown in a 8-13 cm diameter pot filled with natural soil of a standard field soil (loamy silt; non-sterile) and covered with a covering soil layer of about 1 cm. The pots were then cultivated in a greenhouse (12-16 h of light, temperature day 20-22° C., night 15-18° C.) until the time of application. The pots were treated at the BBCH stage 00-10 of the seeds/plants on a laboratory track sprayer with spray liquors comprising the compositions according to the invention, mixtures or components used individually, as WG, WP, EC or other formulations. The application rate for the spray application was 100-600 l of water/ha. After the treatment, the plants were returned to the greenhouses and, when required, treated with fertilizer and watered. • 2. Post-emergence action against weeds: seeds of various broad-leaved weed and weed grass biotypes (origins) were sown in a 8-13 cm diameter pot filled with natural soil of a standard field soil (loamy silt; non-sterile) and covered with a covering soil layer of about 1 cm. The pots were then cultivated in a greenhouse (12-16 h of light, temperature day 20-22° C., night 15-18° C.) until the time of application. […]

TRZAS [3] = experiment: Greenhouse trial, application 7 days prior to sowing, crop (Table 3); conditions: Triticum aestivum (summer wheat), in vivo
Description: as §1, §4

VIOAR [4] = experiment: Greenhouse trial, PO application (Table 2); format: in vivo, Viola arvensis; conditions: (A) 120, (B) 1600 g of AS/ha
Description: as §1, §4

POOAN = experiment: Greenhouse trial, PE application vs application 7 days prior to sowing (Table 3); format: in vivo, Poa annua; conditions: (A) 90, (B) 1200 g of AS/ha
Description: as §1, §2, §5

STEME [5] = experiment: Greenhouse trial, different sowing depths (Table 6); format: in vivo, Stellaria media; conditions: PE application, (A) 90, (B) 1200 g of AS/ha; for activity, STEME 5 mm: sowing depth 5 mm; for activity, STEME 20 mm: sowing depth 20 mm
Description: as §1, §2, §5

VIOAR [6] = experiment: as above; format: in vivo, Viola arvensis; conditions: head prints PO application, (A) 90, (B) 1200 g of AS/ha; for activity, VIOAR 5 mm: sowing depth 5 mm; for activity, VIOAR 20 mm: sowing depth 20 mm
Description: as §1, §2, §5

TRZAS [7] = experiment: Greenhouse trial, PE application with different soil types, crop (Table 4); conditions: Triticum aestivum (summer wheat), in vivo
Description: as §1, §2, §3

APESV = experiment: Greenhouse trial, different sowing depths (Table 6); format: in vivo; conditions: PE application, (A) 90, (B) 1200 g of AS/ha; for activity, APESV 5 mm: sowing depth 5 mm; for activity, APESV 20 mm: sowing depth 20 mm
Description: as §1, §2, §5

STEME [8] = experiment: Greenhouse trial, PO application (Table 2); format: in vivo, Stellaria media; conditions: (A) 120, (B) 1600 g of AS/ha
Description: as §1, §4

LOLPE [9] = experiment: Greenhouse trial, PE application with different soil types (Table 4); format: in vivo, Lolium perenne; conditions: (A) 120, (B) 1200 g of AS/ha
Description: as §1, §2, §3

AVEFA = experiment: Greenhouse trial, PE application vs application 7 days prior to sowing (Table 3); format: in vivo, Avena fatua; conditions: (A) 90, (B) 1200 g of AS/ha
Description: as §1, §2, §5

VIOAR [10] = experiment: Greenhouse trial, PE soil application vs incorporation into the soil (Table 1a); format: in vivo, Viola arvensis; conditions: (A) 90, (B) 1200 g of AS/ha
Description: as §1, §2, §5

MATCH = experiment: Greenhouse trial, different sowing depths (Table 6); format: in vivo, Matricaria chamomilla; conditions: head prints PO application, (A) 90, (B) 1200 g of AS/ha; for activity, MATCH 5 mm: sowing depth 5 mm; for activity, MATCH 20 mm: sowing depth 20 mm
Description: as §1, §2, §5

TRZAW = experiment: Greenhouse trial, PE application, crop (Table 3); conditions: Triticum aestivum (winter wheat), in vivo
Description: as §1, §4

[11] = Application 7 days prior to sowing

| SMILES | Difference resistant to sensitive Δ^D, LOLSS (LOLSS) | activity, LOLSS resistant (LOLSS) [%] | activity, LOLSS Sensitive (LOLSS) [%] | Difference resistant to sensitive Δ^D, PAPRH (PAPRH) | activity, PAPRH resistant (PAPRH) [%] | activity, PAPRH Sensitive (PAPRH) [%] | activity, LOLPE (LOLPE [1]) [%] | activity, HORVS (HORVS) [%] | activity, LOLPE (LOLPE [2]; [11]) [%] | activity, LOLPE (LOLPE [2]; PE application) [%] | activity, TRZAS (TRZAS [3]) [%] | activity, VIOAR (VIOAR [4]) [%] | activity, POOAN (POOAN; [11]) [%] | activity, POOAN (POOAN; PE application) [%] | activity, STEME 5 mm (STEME [5]) [%] | activity, STEME 20 mm (STEME [5]) [%] | activity, VIOAR 5 mm (VIOAR [6]) [%] | activity, VIOAR 20 mm (VIOAR [6]) [%] | Difference of the soil types Δ^D = A: activity IU/EC73 soil − B: activity IU soil, TRZAS (TRZAS [7]) | activity, TRZAS IU soil (TRZAS [7]) [%] | further results |
| --- | --- | --- | --- | --- | --- | --- | --- | --- | --- | --- | --- | --- | --- | --- | --- | --- | --- | --- | --- | --- | --- |
| COc1nc(C)nc(NC(=O)NS(=O)(=O)c2cc(I)ccc2C(=O)O)n1 [(C)^1 iodosulfuron] | Δ^D −48% | 50 | 98 | Δ^D −40% | 70 | 100 | – | – | – | – | – | – | – | – | – | – | – | – | – | – | Difference resistant to sensitive Δ^D, LOLSS (LOLSS; listed as standard product (C)): −48% |
| CC(C)N(C(=O)COc1nnc(C(F)(F)F)s1)c1ccc(F)cc1 [(A) flufenacet, N-(4-fluorophenyl)-N-(1-methylethyl)-2-[[5-(trifluoromethyl)-1,3,4-thiadiazol-2-yl]oxy]acetamide] | Δ^D −75% | 10 | 85 | Δ^D −15% | 45 | 60 | 65 | 40 | 80 | 90 | 60 | 40 | 95 | 65 | 0 | 10 | 50 | 10 | Δ^D −33% | 33 | activity, TRZAS IU/EC73 soil (TRZAS [7]): 0%; activity, APESV 5 mm (APESV): 65%; activity, APESV 20 mm (APESV): 70%; activity, STEME (STEME [8]): 30%; Difference of the soil types Δ^D = A: activity IU/EC73 soil − B: activity IU soil, LOLPE (LOLPE [9]): Δ^D −22%; activity, LOLPE IU soil (LOLPE [9]): 97%; activity, LOLPE IU/EC73 soil (LOLPE [9]): 75%; activity, AVEFA (AVEFA; [11]): 70%; activity, AVEFA (AVEFA; PE application): 80%; activity, VIOAR (VIOAR [10]; Incorporation): 0%; activity, VIOAR (VIOAR [10]; PE application): 0%; activity, MATCH 5 mm (MATCH): 30%; activity, MATCH 20 mm (MATCH): 30%; activity, TRZAW (TRZAW): 30% |
| CCCN(CCC)C(=O)SCc1ccccc1 [(B) prosulfocarb, S-(phenylmethyl) dipropylcarbamothioate] | Δ^D −20% | 65 | 85 | Δ^D +20% | 70 | 50 | 60 | 30 | 0 | 80 | 10 | 50 | 20 | 35 | 60 | 50 | 60 | 20 | Δ^D −5% | 5 | activity, TRZAS IU/EC73 soil (TRZAS [7]): 0%; activity, APESV 5 mm (APESV): 50%; activity, APESV 20 mm (APESV): 20%; activity, STEME (STEME [8]): 30%; Difference of the soil types Δ^D = A: activity IU/EC73 soil − B: activity IU soil, LOLPE (LOLPE [9]): Δ^D −33%; activity, LOLPE IU soil (LOLPE [9]): 33%; activity, LOLPE IU/EC73 soil (LOLPE [9]): 0%; activity, AVEFA (AVEFA; [11]): 10%; activity, AVEFA (AVEFA; PE application): 80%; activity, VIOAR (VIOAR [10]; Incorporation): 0%; activity, VIOAR (VIOAR [10]; PE application): 20%; activity, MATCH 5 mm (MATCH): 0%; activity, MATCH 20 mm (MATCH): 0%; activity, TRZAW (TRZAW): 35% |
